The results in this text go back to ChEMBL document CHEMBL3507680, “University of Dundee, Gates Library screen for HepG2 cell viability”.

The structures appear in SMILES notation.

This data set can be described thus: Human HepG2 cell viability assay in 384 well format. The data set is classed as toxicity, cell-based. Set-up: dose 125 nL, time 70.5 hour; concentration not given beside the values. The note with it: HepG2 cells, read-out: Inhibition.
On to `Cn1cccc1-c1nnc(C2(c3ccc4c(c3)OCO4)CCOCC2)o1`, for which the cytotoxicity at 70.5 h is -9.42%.

Regarding `c1cncc(-c2nnc(C3(c4ccc5c(c4)OCO5)CCOCC3)o2)c1`, the cytotoxicity at 70.5 h was -15.4%.

Consider `CCCc1noc(CCC(=O)N2CCCC(c3ccn[nH]3)C2)n1` (centres undefined), for which the cytotoxicity at 70.5 h is -9.26%.

On to `CCOCc1ccc(NC(=O)C(C)C)cc1`, for which the cytotoxicity at 70.5 h is 19.1%.

On to `CCc1noc(CC)c1CC(=O)N1CCC(C(=O)NC(C)C)CC1`, for which the cytotoxicity at 70.5 h is -3.58%.

As to `CN(C)CCn1ccc2cc(NC(=O)NCc3ccon3)ccc21`, the cytotoxicity at 70.5 h was -8.32%.

Regarding `CCc1noc(C(C)SCCS(C)(=O)=O)n1` (centres undefined), the cytotoxicity at 70.5 h was -7.13%.

Turning to `CCOCCCC(=O)NCC(c1ccccc1)N1CCc2sccc2C1` (centres undefined), the cytotoxicity at 70.5 h was found to be 16.8%.

For `CC(C)(C)c1nc(CC(=O)NC2CCN(C3CC3)C2)cs1` (centres undefined), the cytotoxicity at 70.5 h was -6.08%.

In the case of `CCCNC(=O)CN1CCOC(CC)C1` (centres undefined), the cytotoxicity at 70.5 h is -15.7%.

Regarding `CCC1CN(CC(=O)NC(C)C)CCO1` (centres undefined), the cytotoxicity at 70.5 h is -10.4%.

As to `CCC1CN(CC(=O)NCCOC)CCO1` (centres undefined), the cytotoxicity at 70.5 h is -4.46%.

For `CN1CCC(N(C)c2ccccc2CNCc2ccco2)CC1`, the cytotoxicity at 70.5 h stood at 30.3%.

On to `Cc1noc(C)c1CNCc1ccccc1N(C)C1CCN(C)CC1`, for which the cytotoxicity at 70.5 h was -4.38%.

For the compound `CCN(CCc1nccs1)C(=O)c1ncoc1C`, the cytotoxicity at 70.5 h is -13.2%.

As to `O=C(CCCc1nc(C2CC2)no1)N1CCCC(c2ccn[nH]2)C1` (centres undefined), the cytotoxicity at 70.5 h was -7.72%.

For the compound `COCCN(Cc1ccccn1)C(=O)c1ccc(=O)n(C)c1`, the cytotoxicity at 70.5 h came to 1.44%.

As for `CCN(Cc1cccs1)C(=O)c1ccc(=O)n(C)c1`, the cytotoxicity at 70.5 h was found to be 1.17%.

`O=C(CCN1C(=O)CCC1=O)Nc1ccc(OCC(F)(F)F)nc1`: the cytotoxicity at 70.5 h is -0.0202%.

Turning to `COc1c(Cl)cc(C(=O)NCCNc2ncccn2)cc1Cl`, the cytotoxicity at 70.5 h turned out to be 20.5%.

With `Cc1noc(CCCC(=O)Nc2cc(C(F)(F)F)c[nH]c2=O)n1`, the cytotoxicity at 70.5 h was -3.91%.

Consider `CNC(=O)c1ccc(NC(=O)NC(C)c2cc(C)oc2C)c(C)c1` (centres undefined), for which the cytotoxicity at 70.5 h is -5.7%.

For the compound `O=C(CCc1ccccc1)N1CCC(c2n[nH]c(C3CC3)n2)CC1`, the cytotoxicity at 70.5 h is -7.31%.

As for `COc1cc(OC)cc(C(=O)NCCCNc2ncccn2)c1`, the cytotoxicity at 70.5 h was -7.17%.

Turning to `NC(=O)C1=NC2=NS(=O)(=O)c3ccccc3N2N1Cc1ccc(Cl)cc1`, the cytotoxicity at 70.5 h turned out to be 1.74%.

As for `Cn1c(N)nnc1SCc1ccc(Cl)cc1Br`, the cytotoxicity at 70.5 h was -11.2%.

For the compound `Cc1ccc(CNC(=O)c2c[nH]nc2NC(=O)C2COCCO2)cc1` (centres undefined), the cytotoxicity at 70.5 h is -0.405%.

Take `CCCNC(=O)CCC(=O)N1CCC(c2n[nH]c(C3CC3)n2)CC1`: the cytotoxicity at 70.5 h worked out at 21.7%.

With `O=C(NCc1ccccc1OCC1CC1)C1CCOC1` (centres undefined), the cytotoxicity at 70.5 h was 1.2%.

Turning to `CCOc1cc(NC(=O)N(C)Cc2ncnn2C)ccc1C`, the cytotoxicity at 70.5 h was found to be 20.6%.

For `CCOc1ccc(NC2CCN(C(C)C)C2=O)cn1` (centres undefined), the cytotoxicity at 70.5 h is -3.98%.

Turning to `COc1ccc(NC2CCN(C3CC3)C2=O)cn1` (centres undefined), the cytotoxicity at 70.5 h is 5.36%.

Consider `CCC(C)Oc1cc(C(=O)Nc2nnc(C(C)C)[nH]2)ccn1` (centres undefined), for which the cytotoxicity at 70.5 h turned out to be 3.52%.

Consider `CC(=O)N(CCc1ccccc1)CC(=O)NC(C)(C)C#N`, for which the cytotoxicity at 70.5 h was -2.72%.

For `CCN(C(=O)NCc1cccnc1N(C)C)C(C)c1cccnc1` (centres undefined), the cytotoxicity at 70.5 h was -8.8%.

In the case of `Cc1nc(CNC2CCN(Cc3ccccc3)C2)sc1C` (centres undefined), the cytotoxicity at 70.5 h was -4.16%.

Regarding `CCC1COCCN1C(=O)NCc1cccc(-c2cnn(C)c2)c1` (centres undefined), the cytotoxicity at 70.5 h is -6.22%.

Turning to `CCn1nc(C(=O)N2CCCC2c2noc(C3CC3)n2)ccc1=O` (centres undefined), the cytotoxicity at 70.5 h was determined as 12.1%.

With `Cc1cccc(N(CCC#N)S(=O)(=O)CC2CCCCO2)c1` (centres undefined), the cytotoxicity at 70.5 h came out at 34.5%.

In the case of `CCCn1nc(C(=O)N2CCCC2c2noc(C)n2)ccc1=O` (centres undefined), the cytotoxicity at 70.5 h is -0.244%.

With `N#CCCNC(=O)CN1CCC(c2cc3ccccc3[nH]2)CC1`, the cytotoxicity at 70.5 h was -10.1%.

Take `CN(C(=O)CN1CCC(c2cc3ccccc3[nH]2)CC1)C(C)(C)C#N`: the cytotoxicity at 70.5 h is -16.1%.

`CN(CCC#N)C(=O)CN1CCC(c2cc3ccccc3[nH]2)CC1`: the cytotoxicity at 70.5 h turned out to be 4.21%.

`Cc1cc(NC(C)C(=O)NCc2ccccc2)nc(-c2ccncc2)n1` (centres undefined): the cytotoxicity at 70.5 h was -13.1%.

For the compound `CCN(CC)c1ccc(C(=O)NCC2(C(N)=O)CCOCC2)cn1`, the cytotoxicity at 70.5 h is -4.92%.

For the compound `O=C(NC1CCN(c2ncccn2)CC1)c1cc2c([nH]c1=O)CCC2`, the cytotoxicity at 70.5 h is -10.7%.

Take `CN(CC(F)(F)F)C(=O)CN1CCC(c2cc3ccccc3[nH]2)CC1`: the cytotoxicity at 70.5 h is -25%.

`O=C(CN1CCc2[nH]c3ccccc3c2C1)NCc1ccco1`: the cytotoxicity at 70.5 h was -10.8%.

Turning to `CN(C)C(=O)C1CCN(Cn2ccc(-c3ccc(F)cc3)n2)CC1`, the cytotoxicity at 70.5 h is -12.5%.

Take `CN1CCCC(N2CCN(c3cc(C(F)(F)F)ccn3)CC2)C1` (centres undefined): the cytotoxicity at 70.5 h was -5.61%.

Regarding `Cc1ccc(N2CCC(NCc3cnc(C4CCC4)s3)CC2)nc1`, the cytotoxicity at 70.5 h amounted to 6.63%.

Consider `CCC(C)NC(=O)CCc1ccnc2ccccc12` (centres undefined), for which the cytotoxicity at 70.5 h came to 2.59%.

In the case of `O=C(NCc1ccc2c(c1)OCO2)N1CCCC2(C1)OCCO2`, the cytotoxicity at 70.5 h was -7.83%.

Regarding `COc1c(Br)cccc1CCNC(=O)c1csnn1`, the cytotoxicity at 70.5 h was -11.9%.

Take `Cn1ccc(CNC(=O)N2CCC(C3(C)OCCO3)CC2)c1`: the cytotoxicity at 70.5 h was -8.7%.

On to `CSCCC(NC(=O)c1ccc2ccccc2n1)C(=O)N(C)C` (centres undefined), for which the cytotoxicity at 70.5 h worked out at 18%.

Turning to `COCC(C)N(C)C(=O)NC1CCN(S(C)(=O)=O)CC1` (centres undefined), the cytotoxicity at 70.5 h is -6.45%.

Take `CSCCC(NC(=O)c1ccc2ccccc2n1)C(=O)NC(C)C` (centres undefined): the cytotoxicity at 70.5 h was -3.96%.

Consider `CCN(CCC(=O)OC)S(=O)(=O)c1cnc2c(c1)c(C)nn2C`, for which the cytotoxicity at 70.5 h was -4.3%.

With `O=C(NCC1CCCCO1)c1ccc(-c2ccco2)[nH]c1=O` (centres undefined), the cytotoxicity at 70.5 h is -8.49%.

Consider `Cc1ccc(C(=O)NCC2CCCCO2)c(=O)[nH]1` (centres undefined), for which the cytotoxicity at 70.5 h is -3.97%.

In the case of `Cc1nccn1-c1ccc(CNC(=O)c2ccc(O)nc2)cn1`, the cytotoxicity at 70.5 h was -9.46%.

On to `O=C(NCC1CCCCO1)c1ccc(-c2cccs2)[nH]c1=O` (centres undefined), for which the cytotoxicity at 70.5 h was -0.0205%.

In the case of `CN(C1CCN(c2ccccn2)CC1)S(=O)(=O)N1CCOCC1`, the cytotoxicity at 70.5 h was -7.57%.

As to `CC(C)C(C)(C#N)NC(=O)Cn1cc(I)cn1` (centres undefined), the cytotoxicity at 70.5 h was -3.37%.

Consider `CN(Cc1cc(F)ccc1F)CC(C)(CO)CO`, for which the cytotoxicity at 70.5 h is -5.92%.

With `Cc1nnc(SCCC(=O)N(C)Cc2c(F)cccc2Cl)[nH]1`, the cytotoxicity at 70.5 h is -3.01%.

As for `Cc1nnc(CN(Cc2ccc(Cl)c(Cl)c2)C(C)C)o1`, the cytotoxicity at 70.5 h was -14%.

In the case of `Cc1cccc(C2(NCCCS(C)(=O)=O)CCCC2)c1`, the cytotoxicity at 70.5 h is -6.96%.

As for `Cc1noc(CNc2c(N3CCCC3)cccc2N2CCCC2)n1`, the cytotoxicity at 70.5 h came out at 7.99%.

Consider `Cc1nnc(SCCC(=O)N(C)Cc2ccc(Cl)s2)[nH]1`, for which the cytotoxicity at 70.5 h was -14.2%.

For the compound `CN(Cc1cc(F)ccc1C#N)CC(C)(CO)CO`, the cytotoxicity at 70.5 h is -4.66%.

As for `COC1CCC(N(C)c2ccnc(N(C)C)n2)CC1` (centres undefined), the cytotoxicity at 70.5 h was -7.23%.

Consider `N#Cc1c(F)cccc1N1CCN(C(=O)Nc2nncs2)CC1`, for which the cytotoxicity at 70.5 h stood at 11.5%.

For the compound `O=C(Nc1ccnn1Cc1ccccc1Cl)C1CCS(=O)(=O)C1` (centres undefined), the cytotoxicity at 70.5 h was -17%.

As for `COc1ccc(CNCCn2c(C)nc3ccccc32)cc1O`, the cytotoxicity at 70.5 h is -8.82%.

Regarding `Cc1nc2ccccc2n1CCNCc1cccc(C#N)c1`, the cytotoxicity at 70.5 h is -14.8%.

As for `O=C(CN1CCc2sccc2C1)Nc1nccs1`, the cytotoxicity at 70.5 h was -18.3%.

As to `N#Cc1c(F)cccc1N1CCC(C(=O)Nc2nccs2)CC1`, the cytotoxicity at 70.5 h is -17.6%.

For the compound `CN(CC(=O)NCCCOc1ccc(F)cc1)c1ccc(C#N)cn1`, the cytotoxicity at 70.5 h was -19%.

With `Cc1ccc(OCC(C)NC(=O)CN(C)c2ccc(C#N)cn2)cc1` (centres undefined), the cytotoxicity at 70.5 h is -3.51%.

For the compound `CC(C)(C)NC(=O)NC(=O)CNc1c(F)cccc1N1CCCC1`, the cytotoxicity at 70.5 h is -5.38%.

Regarding `O=C1CCC(C(=O)Nc2cnn(-c3ccccc3Cl)c2)N1` (centres undefined), the cytotoxicity at 70.5 h is -9.74%.

As for `CCNC(=O)N1CCc2ccc(NC(=O)NCCOCC)cc21`, the cytotoxicity at 70.5 h was 1.97%.

`N#CC1(NC(=O)c2ccc(-c3nc(C4CC4)n[nH]3)cc2)CC1`: the cytotoxicity at 70.5 h was -12.9%.

Regarding `CCNC(=O)N1CCc2ccc(NC(=O)NCc3ccsc3)cc21`, the cytotoxicity at 70.5 h amounted to 9.35%.

Consider `CNC(=O)c1cccnc1N1CCC(OCc2ccccc2)CC1`, for which the cytotoxicity at 70.5 h is -19.8%.

Regarding `CNC(=O)c1ccc2c(c1O)OC(C)(C)C2`, the cytotoxicity at 70.5 h is -4.08%.

`CC1(CNC(=O)NCc2ccsc2)CCCS1` (centres undefined): the cytotoxicity at 70.5 h was -8.93%.

`CNC(=O)c1cccnc1N1CCC(Oc2ccc(F)cc2)CC1`: the cytotoxicity at 70.5 h is -14.2%.

Regarding `CC(C)(C)C(O)CN1CCN(CC(=O)NC(C2CC2)C2CC2)CC1` (centres undefined), the cytotoxicity at 70.5 h came out at 2.37%.

Regarding `c1csc(CNc2ccccc2Cn2cncn2)c1`, the cytotoxicity at 70.5 h stood at 7.58%.

Turning to `CN(C(=O)c1cccc(OCC(F)F)n1)c1ccc2c(c1)CCO2`, the cytotoxicity at 70.5 h amounted to 21.4%.

As for `N#CC1C(=O)Nc2c(cnn2C2CCCC2)C12CCCC2` (centres undefined), the cytotoxicity at 70.5 h is -2.82%.

As for `Cc1c(C(=O)NCCC(=O)N2CCCC2)oc2c(F)cccc12`, the cytotoxicity at 70.5 h was -6.53%.

Consider `CC(Cc1ccco1)NC(=O)CSc1nnc[nH]1` (centres undefined), for which the cytotoxicity at 70.5 h was -9.49%.

`CCN(Cc1cccc(F)c1)c1ccc2nnnn2n1`: the cytotoxicity at 70.5 h is -1.32%.

For `Cc1ccc(C)c2c(C)c(C(=O)NCCC(=O)N3CCOCC3)oc12`, the cytotoxicity at 70.5 h is -10.6%.

Consider `CCCN(CCc1cccc(F)c1)c1ccc2nnnn2n1`, for which the cytotoxicity at 70.5 h was -22.2%.

In the case of `Cc1ccc(NC(=O)CCC2CC2)cc1N1CCOC1=O`, the cytotoxicity at 70.5 h is -10.8%.

Regarding `CCc1nncn1CCNC(=O)Nc1ccc2c(c1)CCCO2`, the cytotoxicity at 70.5 h was found to be 1.85%.

Take `CCc1nncn1CCNC(=O)Nc1ccc(OC)c(C)c1`: the cytotoxicity at 70.5 h is -7.19%.

With `CCCn1ccc2cc(NC(=O)NCCn3cnnc3CC)ccc21`, the cytotoxicity at 70.5 h was -9.53%.

In the case of `Cc1sc(Br)cc1S(=O)(=O)NCCN`, the cytotoxicity at 70.5 h was -7.86%.
